US10703756B2, “Pyrrolo[2,3-D]pyrimidinyl, pyrrolo[2,3-B]pyrazinyl, pyrrolo[2,3-B]pyridinyl acrylamides and epoxides thereof” (Pfizer Inc., priority 2015, dated 2020)
Like-named read-outs stand apart in the source and are kept apart here.

Columns and labels:
[1] = target: T1, JAK3 enzyme (Homo sapiens, UniProt P52333); experiment: JAK Caliper Enzyme Assay at 4 μM ATP; assay type: biochemical
T1 sequence (P52333 1-1124): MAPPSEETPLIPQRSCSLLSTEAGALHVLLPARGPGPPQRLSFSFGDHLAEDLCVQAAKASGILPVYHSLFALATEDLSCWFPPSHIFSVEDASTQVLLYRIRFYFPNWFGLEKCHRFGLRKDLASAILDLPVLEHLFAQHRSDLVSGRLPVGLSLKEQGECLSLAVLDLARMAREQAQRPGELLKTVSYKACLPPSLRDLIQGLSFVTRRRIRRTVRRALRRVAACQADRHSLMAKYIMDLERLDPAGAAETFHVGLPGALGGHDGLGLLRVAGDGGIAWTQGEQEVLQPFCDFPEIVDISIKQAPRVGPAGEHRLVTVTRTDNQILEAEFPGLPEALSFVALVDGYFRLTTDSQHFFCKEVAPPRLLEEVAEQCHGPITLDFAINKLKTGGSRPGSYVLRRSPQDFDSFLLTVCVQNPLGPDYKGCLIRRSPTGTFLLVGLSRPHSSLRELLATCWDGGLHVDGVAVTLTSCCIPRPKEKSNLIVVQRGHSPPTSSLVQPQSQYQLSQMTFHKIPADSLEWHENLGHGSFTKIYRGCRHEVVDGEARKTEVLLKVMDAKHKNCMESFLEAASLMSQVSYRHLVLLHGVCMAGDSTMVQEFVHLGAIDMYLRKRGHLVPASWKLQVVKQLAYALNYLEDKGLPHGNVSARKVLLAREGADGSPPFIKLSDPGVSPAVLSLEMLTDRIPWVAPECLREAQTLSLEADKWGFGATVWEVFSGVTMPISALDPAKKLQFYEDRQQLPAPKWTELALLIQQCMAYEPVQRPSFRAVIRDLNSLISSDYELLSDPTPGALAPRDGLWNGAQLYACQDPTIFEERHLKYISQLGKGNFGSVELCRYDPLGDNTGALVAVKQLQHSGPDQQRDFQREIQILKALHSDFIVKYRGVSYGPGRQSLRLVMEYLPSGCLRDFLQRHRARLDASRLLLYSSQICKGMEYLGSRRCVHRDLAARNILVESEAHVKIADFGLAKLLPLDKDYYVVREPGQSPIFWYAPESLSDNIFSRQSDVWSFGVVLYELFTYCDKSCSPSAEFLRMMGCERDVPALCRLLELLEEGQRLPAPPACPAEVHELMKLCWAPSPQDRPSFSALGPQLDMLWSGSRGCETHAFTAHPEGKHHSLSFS
Method in brief: (§1)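 Read-out: microfluidic mobility-shift separation quantifying substrate peptide versus phosphopeptide. Compounds were tested as 11-point half-log dilutions, top 600 μM in DMSO before transfer. Enzyme level and reaction time were tuned for each prep so conversion stayed at 20%-30%.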

[2] = tested on: IL-15 induced P-STAT5 in human PBMC; experiment: PBMC IL-15 Induced P-STAT5; assay type: cell-based
Method in brief: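 Flow cytometry gated on total lymphocytes measured STAT5 staining (Alexa Fluor 647 antibody, overnight, 4 °C) in fixed, methanol-permeabilised human PBMC. Cells had received compound for 15 min at 37 °C (0.2% DMSO final), followed by 41 ng/mL final human IL-15 for 15 min.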

[3] = tested on: IL-15 induced STAT5 phosphorylation in human whole blood lymphocytes; experiment: HWB IL-15 Induced STAT5 Phosphorylation Assay; assay type: cell-based; conditions: Lymphocyte, IL-15 final 50 ng/ml, read-out: HWB_IL15 pSTAT5 IC50
Method: HWB IL-15 Induced STAT5 Phosphorylation Assay
After serial dilution of the test compounds 1:2 in DMSO at desired concentration (500× of final), the compounds were further diluted in PBS (by adding 4 μL compound/DMSO in 96 μL PBS, [DMSO]=4%, 20× final). To 96-well polypropylene plates were added 90 μl HWB (heparin treated Human Whole Blood)/well, followed by 5 μl/well 4% DMSO in D-PBS or various concentrations of 20× inhibitor in 4% DMSO in D-PBS (w/o Ca^+2 or Mg^+2) to give 1× in 0.2% DMSO. After mixing and incubating for 45 minutes at 37° C., 5 μl D-PBS (unstimulated control) or 20× stocks of 5 μl human IL-15 (final concentration is 50 ng/ml) were added, and mixed three times. After incubating 15 minutes at 37° C., 1× Lyse/Fix Buffer (BD Phosflow 5× Lyse/Fix Buffer) was added to all wells at 1000 μl/well, then incubated for 20 minutes at 37° C. and spun 5 mins at 1200 rpm. After washing in 1000 μl FACS buffer 1× and spinning for 5 mins at 1200 rpm, 400 μl ice cold Perm Buffer III were added to each well. After mixing gently (1-2×) and incubating on ice for 30 minutes, spinning for 5 mins at 1200 rpm without interruption, and washing 1× in cold […] FACS buffer (D-PBS containing 0.1% BSA and 0.1% sodium azide) 250 μl/well of the desired AlexaFluor647-conjugated anti-phospho STATS antibody at 1:125 dilution in FACS buffer was added. Following incubating at 4° C. over night, all the samples were transferred to 96-well polypropylene U-bottom plate, and checked by flow cytometry gated on total lymphocytes.

[4] = target: T1, JAK3 enzyme; experiment: JAK Caliper Enzyme Assay at 1 mM ATP; assay type: biochemical
Method in brief: as §1

[5] = Stability of JAK3 Covalent Inhibitors in Human Whole Blood; assay type: in vitro ADME; conditions: 1 μM test compound, 37° C., 180 min incubation; for half-life at 1 μM: both sexes, read-out: Human blood stability t1/2
Method in brief: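 Parent remaining versus time was derived from LC-MS/MS peak area ratios to internal standard after acetonitrile quench. Incubations ran for 180 min at 37° C, in duplicate, with 1 μM test compound in pooled K2-EDTA human blood (two healthy donors).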

[6] = human PBMC, IL-15 final 41 ng/mL, read-out: PBMC IL15_pSTAT5_IC50

Compound | IC50 [1] | IC50 [2, 6] | IC50 [3] | IC50 [4] | half-life at 1 μM [5] | Human blood stability t1/2 [5] | IC50 ([2]; Homo sapiens, PBMC, read-out: PBMC IL15_pSTAT5_IC50 (nM))
C=CC(=O)N1CC[C@@H](Nc2cnc3[nH]cc(C(=O)N[C@@H]4C[C@H]4C(F)(F)F)c3n2)[C@@H](OC)C1 [Example 316, 2-{[(3S,4R)-1-acryloyl-3-methoxypiperidin-4-yl]amino}-N-[(1R,2R)-2-(trifluoromethyl)cyclopropyl]-5H-pyrrolo[2,3-b]pyrazine-7-carboxamide] | 0.000643 µM | 294 nM | 1.45 µM | 0.129 µM | – | – | –
C=CC(=O)N1CCC(Oc2cnc3[nH]cc(C(=O)NCC(C)C)c3n2)CC1 [Example 222, 2-[(1-acryloylpiperidin-4-yl)oxy]-N-(2-methylpropyl)-5H-pyrrolo[2,3-b]pyrazine-7-carboxamide] | 0.00038 µM | 280 nM | 1.02 µM | 0.053 µM | – | – | –
C=CC(=O)N1CCC(Nc2cnc3[nH]cc(C(=O)NCc4ccc(Cl)cn4)c3n2)CC1 [Example 186, 2-[(1-acryloylpiperidin-4-yl)amino]-N-[(5-chloropyridin-2-yl)methyl]-5H-pyrrolo[2,3-b]pyrazine-7-carboxamide] | 0.000485 µM | 213 nM | 0.87 µM | 0.015 µM | – | – | –
C=CC(=O)N1CCN(c2cnc3[nH]cc(C(=O)N[C@H](CC)CC#N)c3n2)CC1 [Example 315, 2-(4-acryloylpiperazin-1-yl)-N-[(2R)-1-cyanobutan-2-yl]-5H-pyrrolo[2,3-b]pyrazine-7-carboxamide] | 0.000348 µM | 74.9 nM | 0.211 µM | 0.026 µM | – | – | –
C=CC(=O)N1CCC(Nc2cnc3[nH]cc(C(=O)NCc4ccc(F)c(OC)c4)c3n2)CC1 [Example 174, 2-[(1-acryloylpiperidin-4-yl)amino]-N-(4-fluoro-3-methoxybenzyl)-5H-pyrrolo[2,3-b]pyrazine-7-carboxamide] | 0.000368 µM | 162 nM | 1.73 µM | 0.013 µM | – | – | –
C=CC(=O)N1CCC(Oc2cnc3[nH]cc(C(=O)NCCC(F)(F)F)c3n2)CC1 [Example 198, 2-[(1-acryloylpiperidin-4-yl)oxy]-N-(3,3,3-trifluoropropyl)-5H-pyrrolo[2,3-b]pyrazine-7-carboxamide] | 0.000361 µM | 250 nM | 1.4 µM | 0.053 µM | – | – | –
C=CC(=O)N1C[C@@H](O)C[C@@H](Nc2ncnc3[nH]cc(C#N)c23)C1 [Example 113, 4-{[(3R,5S)-1-Acryloyl-5-hydroxypiperidin-3-yl]amino}-7H-pyrrolo[2,3-d]pyrimidine-5-carbonitrile] | 0.00239 µM | 1940 nM | – | 0.589 µM | > 6 h | – | –
C=CC(=O)N1CCN(c2cnc3[nH]cc(C(=O)N[C@@H]4COC[C@@H]4C4CC4)c3n2)CC1(C)C [Example 139, 2-(4-acryloyl-3,3-dimethylpiperazin-1-yl)-N-[(3S,4R)-4-cyclopropyltetrahydrofuran-3-yl]-5H-pyrrolo[2,3-b]pyrazine-7-carboxamide] | 0.00157 µM | 711 nM | – | 0.109 µM | > 6 h | – | –
C=CC(=O)N1C[C@@H](Nc2ncnc3[nH]ccc23)CC[C@@H]1[C@@H](C)O (single isomer, unassigned) [Example 111] | 0.000858 µM | 537 nM | – | 0.077 µM | 2.87 h | – | –
C=CC(=O)N1CC[C@@H](Nc2cnc3[nH]cc(C(=O)NCC)c3n2)C1 (single isomer, unassigned) [Example 243] | 0.000586 µM | 1730 nM | – | 0.141 µM | > 6 h | – | –
C=CC(=O)N1CCC(N(C)c2cnc3[nH]cc(C(=O)NCC)c3n2)CC1 [Example 60, 2-[(1-acryloylpiperidin-4-yl)(methyl)amino]-N-ethyl-5H-pyrrolo[2,3-b]pyrazine-7-carboxamide] | 0.000448 µM | 379 nM | – | 0.13 µM | 2.97 h | – | –
C=CC(=O)N1C[C@H](Nc2ncnc3[nH]ccc23)C[C@H](O)[C@@H]1C [Example 133] | 0.00111 µM | 302 nM | – | 0.076 µM | – | 3.97 h | –
C=CC(=O)N1C[C@@H](Nc2cnc3[nH]cc(C(=O)N[C@@H](C)COC)c3n2)CC[C@H]1C (racemic) [Example 65, Cis-racemic-2-{[1-acryloyl-6-methylpiperidin-3-yl]amino}-N-[(2S)-1-methoxypropan-2-yl]-5H-pyrrolo[2,3-b]pyrazine-7-carboxamide] | 0.00102 µM | 585 nM | – | 0.053 µM | > 6 h | – | –
C=CC(=O)N1C[C@@H](Oc2cnc3[nH]cc(C(=O)N[C@@H](C)COC)c3n2)CC[C@H]1C (racemic) [Example 80, Cis-racemic-2-{[1-acryloyl-6-methylpiperidin-3-yl]oxy}-N-[(2S)-1-methoxypropan-2-yl]-5H-pyrrolo[2,3-b]pyrazine-7-carboxamide] | 0.00132 µM | 829 nM | – | 0.16 µM | 4.8 h | – | –
C=CC(=O)N1CC(Nc2cnc3[nH]cc(C(=O)NCC)c3n2)CCC1C (single isomer, unassigned) [Example 76] | 0.000566 µM | 1150 nM | – | 0.136 µM | > 6 h | – | –
C=CC(=O)N1CC[C@H](Nc2cnc3[nH]cc(C(=O)NCC(F)(F)F)c3n2)C1 [Example 231, 2-{[(3S)-1-acryloylpyrrolidin-3-yl]amino}-N-(2,2,2-trifluoroethyl)-5H-pyrrolo[2,3-b]pyrazine-7-carboxamide] | 0.000322 µM | 353 nM | – | 0.085 µM | 5.35 h | – | –
C=CC(=O)N1CC[C@H](CNc2cnc3[nH]cc(C(=O)N[C@@H](C)COC)c3n2)C1 (single isomer, unassigned) [Example 18] | 0.000491 µM | 5990 nM | – | 0.096 µM | > 6 h | – | –
C=CC(=O)N1CC[C@@H](Nc2cnc3[nH]cc(C(=O)N[C@H](C)COC)c3n2)C[C@H]1C (single isomer, unassigned) [Example 58] | 0.00277 µM | – | – | 0.282 µM | > 6 h | – | 4740 nM
